# Activity calls are given as the source filed them. No cut-off for these calls is given here.
# How the values were obtained:
# HUVEC [1] = assay: Anti-angiogenesis activity against HUVEC cells assessed as tubule formation at 10 uM incubated for 6 hrs by inverted fluorescence microscopic analysis relative to control; type: functional, Homo sapiens
# HUVEC [2] = assay: Anti-angiogenesis activity against HUVEC cells assessed as tubule formation at 250 nM incubated for 6 hrs by inverted fluorescence microscopic analysis relative to control; type: functional, Homo sapiens
# HUVEC [3] = assay: Anti-angiogenesis activity against HUVEC cells assessed as reduction in tubule formation at 50 nM incubated for 6 hrs by inverted fluorescence microscopic analysis relative to control; type: functional, Homo sapiens; set-up: scale not given: the % may be the effect or the level left
# Mus musculus [4] = species: Mus musculus; assay: Antiangiogenic activity in BALB/c mouse assessed as assessed as reduction in CD31-positive microvessel density in ear tissue at 2 uM measured after 6 days by fluorescence microscopic analysis; type: functional, organism-based; conditions: time 6.0 day
# Mus musculus [5] = species: Mus musculus; assay: Antiangiogenic activity in BALB/c mouse assessed as reduction in neovascularization by measuring reduction in hemoglobin concentration at 2 uM by matrigel plug assay; type: functional, organism-based
# Mus musculus [6] = species: Mus musculus; assay: Antiangiogenic activity in BALB/c mouse assessed as reduction in neovascularization by measuring reduction in hemoglobin concentration at 250 nM by matrigel plug assay; type: functional, organism-based
# HUVEC [7] = assay: Induction of F-actin depolymerization in HUVEC assessed as loss of endothelial cell morphology at 250 nM incubated for 6 hrs by phalloidin staining based confocal microscopic analysis; conditions: Homo sapiens
# [8] = Stability in simulated gastric fluid at pH 1.2 assessed as parent compound remaining after 2 hrs; type: ADME; conditions: read-out: Stability
# HUVEC [9] = assay: Induction of F-actin depolymerization in HUVEC assessed as plasma membrane blebbing at 250 nM incubated for 6 hrs by phalloidin staining based confocal microscopic analysis; type: cell membranes; conditions: Homo sapiens
# [10] = Metabolic stability in rat liver microsomes assessed as half life; type: ADME, Microsome
# HUVEC [11] = assay: Induction of F-actin depolymerization in HUVEC assessed as loss of F-actin continuity at 250 nM incubated for 6 hrs by phalloidin staining based confocal microscopic analysis; type: tissue-based; conditions: Homo sapiens
# Tubulin (Homo sapiens) [12] = biological target: T1, Tubulin (Homo sapiens) (UniProt P68371+Q9H4B7+P0DPH7+P68366+Q13509+Q71U36+P04350+Q3ZCM7+P07437+P68363+Q9BQE3+Q6PEY2+Q13885+Q9BVA1+Q9BUF5); assay: Induction of microtubule depolymerization in HUVEC assessed as assessed as loss of endothelial cell morphology at 250 nM incubated for 6 hrs by […] based confocal microscopic analysis
# [13] = Metabolic stability in rat liver microsomes assessed as dissociation rate constant; type: ADME, Microsome
# [14] = biological target: Vascular endothelial growth factor receptor 2 (Homo sapiens) (UniProt P35968); assay: Inhibition of VEGFR2 phosphorylation in VEGF-induced HUVEC cells pretreated at 0.5 to 20 uM by Western blot analysis; type: cell-based; conditions: dose 0.5-20 µM
# HUVEC [15] = assay: Inhibition of tube formation in HUVEC measured up to 12 hrs by calcein-AM staining based fluorescence microscopic analysis; type: functional, cell-based; conditions: Homo sapiens, dose 250-10000 nM, time hrs <=12
# [16] = Cmax in Sprague-Dawley rat at 25 mg/kg, IM measured up to 48 hrs; type: ADME, organism-based; set-up: route intramuscular, dose 25 mg/kg, time <=48; conditions: in vivo
# HUVEC [17] = assay: Antiangiogenic activity against VEGF-stimulated HUVEC cells assessed as reduction in endothelial sprouting tubules incubated for 3 days by Cytodex-3 beads based inverted microscopic analysis; type: functional, cell-based; conditions: Homo sapiens, dose 250-1000 nM, time 3.0 day
# HUVEC [18] = assay: Antiangiogenic activity against HUVEC cells assessed as inhibition of cell migration measured after 12 hrs by scratch wound closure assay relative to control; type: functional, Homo sapiens
# HUVEC [19] = assay: Downregulation of ICAM-1 expression in HUVEC cells at 250 nM measured after 6 hrs by Western blot analysis; type: functional, cell-based; conditions: Homo sapiens
# HUVEC [20] = assay: Downregulation of p-Akt expression in HUVEC cells at 250 nM measured after 6 hrs by Western blot analysis; type: functional, cell-based; conditions: Homo sapiens
# HUVEC [21] = assay: Effect on cell cycle distribution in HUVEC cells assessed as accumulation of cells in G2 phase at 250 nM measured after 24 hrs by propidium iodide staining based flow cytometry analysis (Rvb= 1.67%); type: functional, Homo sapiens
# [22] = Half life in Sprague-Dawley rat at 25 mg/kg, IM measured up to 48 hrs; type: ADME, organism-based; conditions: in vivo
# [23] = Apparent volume of distribution in Sprague-Dawley rat at 25 mg/kg, IM measured up to 48 hrs; type: ADME, organism-based; conditions: in vivo
# HUVEC [24] = assay: Cytotoxicity against HUVEC assessed as reduction in cell proliferation at 250 nM measured after 24 hrs by MTT assay; type: cell-based; conditions: human, 0.25 µM
# MDA-MB-468 = assay: Antitumor activity against human MDA-MB-468 cells xenografted in CD-1 mouse assessed as reduction in tumor size at 30 mg/kg, iv administered once daily for 21 days; type: functional, organism-based; conditions: time 21.0 day
# Mus musculus [25] = species: Mus musculus; assay: Antiangiogenic activity in BALB/c mouse assessed as assessed as reduction in CD31-positive microvessel density in ear tissue at 250 nM measured after 6 days by fluorescence microscopic analysis; type: functional, organism-based; conditions: time 6.0 day
# Tubulin (Homo sapiens) [26] = biological target: T1, Tubulin (Homo sapiens); assay: Induction of microtubule depolymerization in HUVEC assessed as assessed as microtubule network abnormalities at 250 nM incubated for 6 hrs by […] based confocal microscopic analysis; type: tissue-based
# [27] = Stability in culture media assessed as compound remaining at 250 to 500 nM measured up to 24 hrs; type: physicochemical; conditions: dose 250-500 nM, read-out: Stability
# HUVEC [28] = assay: Vascular disruptive effect in HUVEC cells assessed as reduction in tube formation at 250 nM measured after 3 to 24 hrs by calcein-AM staining based fluorescence microscopic analysis; type: functional, cell-based; conditions: Homo sapiens, time 3-24 hrs
# [29] = Intrinsic clearance in rat liver microsomes; type: ADME, Microsome
# [30] = Tmax in Sprague-Dawley rat at 25 mg/kg, IM measured up to 48 hrs; type: ADME, organism-based; conditions: in vivo
# Tubulin (Homo sapiens) [31] = biological target: T1, Tubulin (Homo sapiens); assay: Induction of microtubule depolymerization in HUVEC assessed as assessed as plasma membrane blebbing at 250 nM incubated for 6 hrs by […] based confocal microscopic analysis; type: cell membranes
# HUVEC [32] = assay: Antiangiogenic activity against HUVEC cells assessed as inhibition of cell migration measured after 24 hrs by scratch wound closure assay; type: functional, cell-based; conditions: Homo sapiens
# HUVEC [33] = assay: Inhibition of tube formation in HUVEC at 50 to 100 nM measured up to 12 hrs by calcein-AM staining based fluorescence microscopic analysis; type: functional, cell-based; conditions: Homo sapiens, dose 50-100 nM, time hrs <=12
# [34] = Elimination rate constant in Sprague-Dawley rat at 25 mg/kg, IM measured up to 48 hrs; type: ADME, organism-based; conditions: in vivo
# [35] = Stability in rat plasma assessed as compound remaining measured up to 2 hrs; type: ADME, cell-free; conditions: read-out: Stability
# [36] = Stability in simulated intestinal fluid at pH 6.8 assessed as parent compound remaining after 2 hrs; type: ADME; conditions: read-out: Stability
# [37] = Clearance in Sprague-Dawley rat at 25 mg/kg, IM measured up to 48 hrs; type: ADME, organism-based; conditions: in vivo
# HUVEC [38] = assay: Downregulation of p-Src expression in HUVEC cells at 250 nM measured after 6 hrs by Western blot analysis; type: functional, cell-based; conditions: Homo sapiens
# Vascular endothelial growth factor receptor 2 (Homo sapiens), sequence (P35968 whole entry): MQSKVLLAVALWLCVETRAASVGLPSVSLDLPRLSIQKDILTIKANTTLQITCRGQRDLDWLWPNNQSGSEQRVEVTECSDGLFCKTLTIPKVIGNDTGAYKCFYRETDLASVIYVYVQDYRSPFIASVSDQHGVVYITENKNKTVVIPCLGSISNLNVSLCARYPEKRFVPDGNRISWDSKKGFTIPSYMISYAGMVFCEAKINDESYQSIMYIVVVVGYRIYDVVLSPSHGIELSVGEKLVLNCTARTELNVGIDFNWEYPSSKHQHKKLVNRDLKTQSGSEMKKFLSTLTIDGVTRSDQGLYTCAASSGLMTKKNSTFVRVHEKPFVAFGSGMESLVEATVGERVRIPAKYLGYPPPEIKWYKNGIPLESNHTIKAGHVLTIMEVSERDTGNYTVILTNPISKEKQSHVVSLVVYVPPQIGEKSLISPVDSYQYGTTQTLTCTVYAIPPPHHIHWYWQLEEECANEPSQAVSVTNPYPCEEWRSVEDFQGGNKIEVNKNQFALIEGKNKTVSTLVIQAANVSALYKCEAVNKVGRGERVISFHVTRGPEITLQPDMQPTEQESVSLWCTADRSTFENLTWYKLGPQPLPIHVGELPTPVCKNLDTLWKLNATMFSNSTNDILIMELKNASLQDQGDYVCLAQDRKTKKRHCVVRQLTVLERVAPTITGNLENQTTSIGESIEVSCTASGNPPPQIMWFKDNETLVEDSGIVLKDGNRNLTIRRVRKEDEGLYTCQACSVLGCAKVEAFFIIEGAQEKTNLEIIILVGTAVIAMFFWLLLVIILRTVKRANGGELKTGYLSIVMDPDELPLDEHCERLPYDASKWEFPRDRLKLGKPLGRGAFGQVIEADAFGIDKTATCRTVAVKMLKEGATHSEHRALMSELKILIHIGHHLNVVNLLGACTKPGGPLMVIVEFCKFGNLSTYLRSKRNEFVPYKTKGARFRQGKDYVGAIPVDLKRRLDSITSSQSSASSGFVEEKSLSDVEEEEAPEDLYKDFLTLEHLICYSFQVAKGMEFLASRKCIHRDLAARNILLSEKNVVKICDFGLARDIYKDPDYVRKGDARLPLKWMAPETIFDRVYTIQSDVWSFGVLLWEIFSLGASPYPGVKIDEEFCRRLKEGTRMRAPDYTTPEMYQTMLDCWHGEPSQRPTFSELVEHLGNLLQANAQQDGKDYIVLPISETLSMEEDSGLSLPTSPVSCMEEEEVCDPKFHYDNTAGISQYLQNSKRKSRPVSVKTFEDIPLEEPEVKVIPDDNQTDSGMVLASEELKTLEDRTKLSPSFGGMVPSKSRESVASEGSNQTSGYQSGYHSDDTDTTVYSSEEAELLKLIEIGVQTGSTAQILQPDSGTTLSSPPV
structure (smiles),measurement,setting,value
COc1cccc(Nc2sc3ccccc3c2C#N)c1,Activity,HUVEC [1],81%
COc1cc2sc(Nc3ccccc3)c(C#N)c2cc1OC,Activity,HUVEC [1],77%
N#Cc1c(Nc2cccc(O)c2)sc2ccccc12,Activity,HUVEC [2],60%
same,Activity,HUVEC [1],0%
N#Cc1c(Nc2ccccc2)sc2cc3ccccc3cc12,Activity,HUVEC [1],50%
COc1ccc(Nc2sc3c(OC)cc(OC)cc3c2C#N)cc1,Activity,HUVEC [1],63%
CCN(CC)CCNC(=O)c1c(C)[nH]c(/C=C2\C(=O)Nc3ccc(F)cc32)c1C [SUNITINIB],Activity,HUVEC [3],43%
same,Activity,Mus musculus [4],Active
same,Activity,Mus musculus [5],Active
N#Cc1c(Nc2ccc(F)cc2)sc2ccccc12,Activity,HUVEC [2],58%
same,Activity,HUVEC [1],25%
N#Cc1c(Nc2ccccc2)sc2cc3c(cc12)OCO3,Activity,HUVEC [1],75%
N#Cc1c(Nc2ccc(Cl)cc2)sc2ccccc12,Activity,HUVEC [2],45%
same,Activity,HUVEC [1],45%
COc1cc2sc(Nc3ccc(O)cc3)c(C#N)c2cc1OC,Activity,HUVEC [2],73%
same,Activity,HUVEC [1],0%
CC(=O)N(c1ccc(O)cc1)c1sc2ccccc2c1C#N,Activity,HUVEC [2],59%
same,Activity,HUVEC [1],36%
N#Cc1c(Nc2ccc(C(F)(F)F)cc2)sc2ccccc12,Activity,HUVEC [2],65%
same,Activity,HUVEC [1],24%
N#Cc1c(Nc2ccc(N)cc2)sc2ccccc12,Activity,HUVEC [2],51%
same,Activity,HUVEC [1],1%
N#Cc1c(Nc2ccc(O)cc2)sc2ccccc12,Activity,Mus musculus [6],Active
same,Activity,HUVEC [7],Active
same,Activity,HUVEC [2],2%
same,remaining at 2 h,[8],90.4%
same,Activity,HUVEC [9],Active
same,half-life,[10],1.87 h
same,Activity,HUVEC [11],Active
same,Activity,Tubulin (Homo sapiens) [12],Active
same,Kdiss,[13],0.000103 s⁻¹
same,inhibition,[14],Active
same,inhibition,HUVEC [15],Dose-Dependent Effect
same,Cmax,[16],442 ng/mL
same,Activity,HUVEC [17],Dose-Dependent Effect
same,inhibition (INH),HUVEC [18],80%
same,Activity,HUVEC [19],inactive
same,Activity,HUVEC [20],Active
same,Activity,HUVEC [21],1.58%
same,half-life,[22],6 h
same,Vz,[23],107.16 L/kg
same,Activity,HUVEC [24],Non-Toxic
same,Activity,MDA-MB-468,Active
same,Activity,Mus musculus [25],Active
same,Activity,Tubulin (Homo sapiens) [26],Active
same,"remaining at 24 h, up to 0.5 µM",[27],78.3%
same,Activity,HUVEC [28],Active
same,CLH,[29],0.74 L/h
same,Tmax,[30],0.5 h
same,Activity,Tubulin (Homo sapiens) [31],Active
same,inhibition,HUVEC [32],inactive
same,inhibition,HUVEC [33],inactive
same,k el at 48 h,[34],3.47e-05 s⁻¹
same,remaining at 2 h,[35],89.1%
same,remaining at 2 h,[36],89%
same,Activity,HUVEC [1],25%
same,CL/F,[37],205 mL/min/kg
same,Activity,HUVEC [38],Active
N#Cc1c(Nc2ccccc2)sc2ccccc12,Activity,HUVEC [1],81%
COc1ccc(Nc2sc3ccccc3c2C#N)cc1,Activity,HUVEC [1],57%
N#Cc1c(Nc2ccccc2O)sc2ccccc12,Activity,HUVEC [2],68%
same,Activity,HUVEC [1],19%
N#Cc1c(Nc2ccc([N+](=O)[O-])cc2)sc2ccccc12,Activity,HUVEC [2],37%
same,Activity,HUVEC [1],8%
COc1c2c(cc3c(C#N)c(Nc4ccccc4)sc13)OCO2,Activity,HUVEC [1],81%
COc1cc2sc(Nc3cccc(O)c3)c(C#N)c2cc1OC,Activity,HUVEC [2],67%
same,Activity,HUVEC [1],11%

# Reference: ChEMBL document CHEMBL5036357, “2,3-Difunctionalized Benzo[b]thiophene Scaffolds Possessing Potent Antiangiogenic Properties” (J Med Chem, 2022)
